Source: article PMC4961458 (eLife, 2016)

What was measured:
PR-A = molecular target: T1, PR-A (Homo sapiens, UniProt P06401); experiment: PR-A transcriptional reporter assay, agonist mode (HEPG2 cells); format: cell-based; design: subcloning full-length PRa into pCMX; expressed in transfected cells; host or cells: HEPG2; details: % of maximal R5020-stimulated activity
T1 sequence (P06401 1-769 isoform P06401-2): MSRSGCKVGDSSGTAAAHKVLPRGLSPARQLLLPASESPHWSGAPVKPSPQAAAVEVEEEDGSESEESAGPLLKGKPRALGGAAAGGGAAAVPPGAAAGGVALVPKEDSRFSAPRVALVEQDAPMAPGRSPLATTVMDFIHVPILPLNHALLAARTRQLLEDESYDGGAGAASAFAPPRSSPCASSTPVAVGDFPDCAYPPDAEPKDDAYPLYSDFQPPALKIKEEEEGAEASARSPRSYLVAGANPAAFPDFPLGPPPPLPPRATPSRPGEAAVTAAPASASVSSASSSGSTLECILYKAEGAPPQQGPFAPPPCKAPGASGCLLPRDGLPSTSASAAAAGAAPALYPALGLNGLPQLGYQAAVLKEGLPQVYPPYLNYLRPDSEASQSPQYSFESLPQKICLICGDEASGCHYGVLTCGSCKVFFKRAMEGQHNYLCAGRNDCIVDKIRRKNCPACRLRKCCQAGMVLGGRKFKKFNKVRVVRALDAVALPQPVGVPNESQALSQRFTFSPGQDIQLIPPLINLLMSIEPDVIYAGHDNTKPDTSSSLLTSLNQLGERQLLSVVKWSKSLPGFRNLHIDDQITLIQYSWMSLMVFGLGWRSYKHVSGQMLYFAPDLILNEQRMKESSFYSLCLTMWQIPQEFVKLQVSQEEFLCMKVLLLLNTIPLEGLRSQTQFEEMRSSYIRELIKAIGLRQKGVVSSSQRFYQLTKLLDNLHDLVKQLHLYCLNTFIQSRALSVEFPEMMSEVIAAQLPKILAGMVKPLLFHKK
Experimental: Transcriptional assays were performed by seeding 100 μL of cells at a density of 250,000 cells/mL into 96-well cell culture plates in RPMI 1640 supplemented with 5% charcoal-stripped serum and allowed to attach overnight. […] Triplicate transfections were performed using 418 ng reporter vector (2X PRE-Luciferase for PR-A and PR-B, MMTV-Luciferase for MR), 50 ng CMVpRL (normalization vector), 10 ng NHR expression vector (CMX-PR-A, pCDNA-PR-B or 6R-MR), and 0.7 μL lipofectin. […] The final agonist concentration used in the antagonist assays was 1 nM. Following 24 hr incubation, the medium was removed and the cells were lysed in 40 μL of lysis buffer (25 mM Tris Phosphate, 2 mM CDTA, 10% Glycerol, 0.5% Triton X-100, 2 mM DTT). Firefly luciferase activity was measured immediately following the addition of 40 μL luciferase buffer (20 mM tricine, 0.1 mM EDTA, 1.07 mM (MgCO3)4 Mg(OH)2· 5H2O, 2.67 mM MgSO4, 33.3 mM DTT, 270 μM Coenzyme A, 470 μM luciferin, 530 μM ATP).

TamR1 tumors = experiment: Tamoxifen-resistant MCF7 (TamR1) xenograft efficacy; format: in vivo, mice; details: 0.18 mg 60 day E2 pellets; tamoxifen 120 mg/kg/day p.o.; fulvestrant 200 mg/kg 3x/week s.c.; GDC-0810 10, 30 or 100 mg/kg/day p.o.; 27 days
Experimental: We previously generated a tamoxifen-resistant xenograft model, TamR1, by chronically treating MCF7 tumor bearing mice with tamoxifen until a resistant tumor emerged ([Lai et al., 2015]). […] These experiments were conducted in mice with relatively high levels of circulating estradiol, with estradiol being delivered via 0.72 mg 60 day release E2 pellets that are reported by the manufacturer (Innovative Research) to deliver between 300 and 400 pg/ml estradiol. Under these conditions the high E2 reduces the steady state ERα protein levels, thus confounding the readout of ERα protein as a pharmacodynamic endpoint (Figure 5—figure supplement 1). […] These pellets are sufficient to support tumor growth but only modestly reduce ERα levels (Figure 5—figure supplement 1).
Figure 5. […] (A) Tamoxifen-resistant MCF7 tumors were implanted in animals supplemented with 60-day release 0.18 mg 17β-estradiol pellets. […] S.c. is sub-cutaneous dosing, and p.o. is per os (by mouth) oral gavage dosing. * Denotes significance (p<0.05) compared to Vehicle in 1-Way ANOVA and Dunnett's Multiple Comparison Test. Figure 5—figure supplement 1. Effects of estradiol pellet on ERα levels in MCF7-TamR1 xenograft tumors. TamR1 tumor fragments were implanted into Crl:NU-Foxn1^nu mice implanted with either 0.72 or 0.18 mg/60 day 17-β estradiol pellets. Once tumors were established pellets were removed from 1 group. 28 days after pellet removal ERα protein levels were determined for 4 tumors from each group. Data is presented as average compared to Vehicle (-E2). Error is standard deviation. * Denotes significance (p<0.05) compared to Vehicle (-E2) by T-test. [drawing 7] […] (A) ERα protein levels were determined by western blot analysis of tumors 8 hr following the final compound treatment on day 27. […] KI-67 expression, quantified from IHC analysis. […]
The tamoxifen-resistant derivative of the ER+ human tumor cell line, MCF7 (TamR1) was developed by Seragon Pharmaceuticals, Inc ([Lai et al., 2015]). […] The tumors which continued to grow under these conditions were serially passaged and evaluated for continued tamoxifen resistance. […]

CC/C(=C(\c1ccc(O)cc1)c1ccc(OCCN(C)C)cc1)c1ccccc1 [4-OH Tam, 4-hydroxytamoxifen]
Emax (PR-A): 0.04 ± 0.06%

C[C@]12CC[C@@H]3c4ccc(O)cc4C[C@@H](CCCCCCCCC[S+]([O-])CCCC(F)(F)C(F)(F)F)[C@H]3[C@@H]1CC[C@@H]2O (stereo partly shown) [Fulvestrant]
Tumor growth response, TamR1 xenograft, lower E2 (TamR1 tumors): resulted in regression of TamR1 tumors

CC/C(=C(/c1ccc(/C=C/C(=O)O)cc1)c1ccc2[nH]ncc2c1)c1ccc(F)cc1Cl [GDC-0810]
Tumor growth response, TamR1 xenograft, lower E2 (TamR1 tumors): induced regression at all doses tested
Emax (PR-A): 6.68 ± 7.97%
